# Assays:
# [1] = Aqueous solubility (equilibrium, distilled water); type: physicochemical; details: 25 °C, thermodynamic from solid, 25 ± 2 °C, means ± SD, n = 3, read-out: S (aqueous solubility)
# Procedure: The mixtures were placed in an ultrasonic water bath for 10 min and then shaken for 24 h to establish a saturation equilibrium. Upon filtration, the filtrate was diluted with an appropriate amount of water and the mixture was analyzed by HPLC, the concentration of each compound in its saturated solution was calculated.
# [2] = In vivo incubation in the colon of rats; details: injected into tied rat colon, 6 h
# Procedure: 6 hours later, rats were sacrificed and their colon contents were separated and homogenized in 40 mL of phosphate buffer (pH 7.4). The homogenate was sonicated for 5 min and centrifuged at 13 000 rpm for 5 min, then 0.2 mL of the supernatant was collected and mixed with 0.8 mL of methanol. Finally, samples were centrifuged, filtered and analyzed by HPLC. The residual contents of each prodrug in colon contents were calculated, and the hydrolysis ratio was calculated by the following equation: [drawing 2] where Wr is the residual amount of prodrugs in the colon contents and Wi is the initial amount of prodrugs that administered to rats.
# [3] = In vitro incubation with small intestine contents of rats; type: in vitro ADME; details: rat small intestine contents homogenate, pH 6.8, 37 °C, after 4 h of incubation
# Procedure: (§1) After anesthetized with diethyl ether, rats were sacrificed and their contents of stomach and small intestine were collected and homogenized respectively, the homogenate was diluted with buffer solution (pH 1.2 for stomach contents, pH 6.8 for small intestine contents) to 20% (w/v). […] After 0.25, 0.5, 1.0, 1.5, 2.0, 3.0 and 4.0 h of incubation, 200 μL of samples were collected and replaced with the same volume of blank homogenate, then samples were centrifuged at 13 000 rpm for 5 min, filtered with membrane filter, and analyzed by HPLC. The residual contents of each prodrug in homogenate were calculated and the hydrolysis curves were drawn.
# [4] = test system: SOD, MDA, GSH, GSH-Px in colonic tissues; experiment: TNBS-induced colitis: levels of SOD, MDA, GSH and GSH-Px in colonic tissues; type: in vivo, mice; details: vs TNBS group, p < 0.01
# Procedure: Colitis was induced according to the previous study.[18,19] Briefly, after 12 h of fasting, mice were anesthetized with intraperitoneal pentobarbital sodium (35 mg kg^-1) before the induction of colitis. 0.1 mL of 50% (v/v) ethanol contained 2.5% (v/v) TNBS was instilled into the colon 3.5-4 cm from the anus by a gavage needle. The mice were kept in a head-down position for 30 s to prevent leakage of the intracolonic instillation. Mice in the control group received normal saline instead of TNBS solution, a physical mixture of 5-ASA and sodium butyrate was used as the positive control. […] The treatments were given once daily for 5 continuous days starting 24 hours after the induction of colitis. Colon tissue samples were homogenized with normal saline, the homogenate (10%, w/w) was centrifuged at 13 000 rpm for 15 min, and the resulting supernatant was diluted to 1% (w/w) for further assay. The protein levels of the colon homogenate were detected by a BCA protein assay kit. Then the activities of SOD and GSH-Px, and the levels of MDA and GSH of samples in each group were measured by the assay kits according to the provider's instructions.
# [5] = test system: TNBS-induced experimental colitis; experiment: TNBS-induced colitis: body weight, survival rates, overall effect; type: in vivo, mice; details: TNBS colitis mice; Ols-DB as enema, others i.g.
# Procedure: Colitis was induced according to the previous study.[18,19] Briefly, after 12 h of fasting, mice were anesthetized with intraperitoneal pentobarbital sodium (35 mg kg^-1) before the induction of colitis. 0.1 mL of 50% (v/v) ethanol contained 2.5% (v/v) TNBS was instilled into the colon 3.5-4 cm from the anus by a gavage needle. The mice were kept in a head-down position for 30 s to prevent leakage of the intracolonic instillation. Mice in the control group received normal saline instead of TNBS solution, a physical mixture of 5-ASA and sodium butyrate was used as the positive control. […] The treatments were given once daily for 5 continuous days starting 24 hours after the induction of colitis. After the induction of colitis, the body weight of each mice was recorded daily, and the curves of weight changes for each group were drawn to evaluate the TNBS-induced colitis. Meanwhile, the death of mice in each group was recorded daily and the final survival rates of mice were calculated.
# [6] = Partition coefficients in n-octanol/phosphate buffer (pH 7.4); type: physicochemical; details: means ± SD, n = 3
# Procedure: The phosphate buffer and octanol were mutually saturated at 20–22 °C before use. Samples were dissolved in the aqueous phase and the n-octanol/phosphate buffer mixtures were shaken for 24 h to reach a distribution equilibrium. The volumes of each phase were chosen so that the solute concentration in the aqueous phase, before and after distribution, could readily be measured using HPLC method. The partition coefficients (P) were calculated from the following equation: [drawing 1] where Ci and Cw represent the solute concentrations in the aqueous buffer phase before and after distribution, respectively, Vw represents the volume of the aqueous phase, and Vo is the volume of the octanol phase.[16]
# [7] = In vitro incubation with stomach contents of rats; type: in vitro ADME; details: rat stomach contents homogenate, pH 1.2, 37 °C, after 2 h of incubation
# Procedure: as §1
# [8] = test system: TNBS-induced experimental colitis; experiment: TNBS-induced colitis: disease activity index (DAI); type: in vivo, mice; details: vs positive control (5-ASA + sodium butyrate)
# Procedure: Colitis was induced according to the previous study.[18,19] Briefly, after 12 h of fasting, mice were anesthetized with intraperitoneal pentobarbital sodium (35 mg kg^-1) before the induction of colitis. 0.1 mL of 50% (v/v) ethanol contained 2.5% (v/v) TNBS was instilled into the colon 3.5-4 cm from the anus by a gavage needle. The mice were kept in a head-down position for 30 s to prevent leakage of the intracolonic instillation. Mice in the control group received normal saline instead of TNBS solution, a physical mixture of 5-ASA and sodium butyrate was used as the positive control. […] The treatments were given once daily for 5 continuous days starting 24 hours after the induction of colitis. DAI is ranged from 0 to 4 and it is the sum of scores given for body weight loss, stool consistency and presence or absence of fecal blood. The fecal occult blood of mice was evaluated by the ο-tolidine method.[22] A small amount of feces samples were smeared on a white plate. 2-3 drops of ο-tolidine solution (10 g L^-1, dissolved in acetic acid) were added into samples and mixed evenly. Then 2-3 drops of 3% H2O2 solution were added into the mixture, meanwhile, start the time and observe immediately. Scored as: normal, weak positive, green to light green developing over 2 min; +, positive, greenish-blue to deep green developing within 1 min; ++, positive, blue to bluish-green developing within 5-20 s; +++, very strong positive, intense blue color developing immediately.[23]
# [9] = test system: MPO activity in colonic tissues; experiment: TNBS-induced colitis: MPO activity in colonic tissues; type: in vivo, mice
# Procedure: Colitis was induced according to the previous study.[18,19] Briefly, after 12 h of fasting, mice were anesthetized with intraperitoneal pentobarbital sodium (35 mg kg^-1) before the induction of colitis. 0.1 mL of 50% (v/v) ethanol contained 2.5% (v/v) TNBS was instilled into the colon 3.5-4 cm from the anus by a gavage needle. The mice were kept in a head-down position for 30 s to prevent leakage of the intracolonic instillation. Mice in the control group received normal saline instead of TNBS solution, a physical mixture of 5-ASA and sodium butyrate was used as the positive control. […] The treatments were given once daily for 5 continuous days starting 24 hours after the induction of colitis. […] Samples were freeze-thawed three times, after which sonication was repeated. Homogenates were then centrifuged at 13 000 rpm for 30 min and MPO was extracted from the resulting supernatant.[25] MPO activity was measured by the assay kit according to its provider's instructions.
# [10] = no reference given; cited from earlier work
SMILES,solubility at 24 h [1],hydrolysis ratio after in vivo incubation in rat colons [2],residual content of prodrug in small intestine contents [3],GSH-Px activities in the colon [4],MDA levels in the colon [4],SOD activities in the colon [4],therapeutic effects on the TNBS-induced UC (overall) [5],P (partition coefficient) [6],logP at 24 h [6],residual content of prodrug in stomach contents [7],"DAI, compared with positive control [8]","MPO activity in colonic tissues ([9]; vs TNBS group, p < 0.01)","MPO activity, compared with positive control ([9]; vs positive control)",half-time (t1/2) [10]
"CCCC(=O)Oc1ccc(N)cc1C(=O)O [5-ASB, 5-aminosalicylic acid butyrate]",310 ± 50 mg/mL,6.79%,100%,increased,significantly decreased,increased,certain therapeutic effects,1.45 ± 0.10,0.16 ± 0.03,hardly hydrolyzed,better effects than the positive control,significantly decreased,significantly better than the positive control,–
CCCC(=O)O [Butyrate],–,–,–,–,–,–,–,–,–,–,–,–,–,6 min
"Nc1ccc(O)c(C(=O)O)c1 [5-ASA, 5-aminosalicylic acid, reference compound]",–,–,–,–,–,–,–,4.47 ± 0.21,0.65 ± 0.02,–,–,–,–,–
